Test results as given in patent US20160168126A1, “CHEMICAL COMPOUNDS” (SYNGENTA LIMITED, priority 2013, published 2016).

System: a variety of test species
Test: Post-emergence herbicidal activity (glasshouse, sprayed 8 days after sowing, evaluated after 13 days)
Format: in vivo
Conditions: scale 0-5
Protocol: Seeds of a variety of test species were sown in standard soil in pots. After 8 days cultivation (post-emergence) under controlled conditions in a glasshouse (at 24/16° C., day/night; 14 hours light; 65% humidity), the plants were sprayed with an aqueous spray solution derived from the formulation of the technical active ingredient in acetone/water (50:50) solution containing 0.5% Tween 20 (polyoxyethelyene sorbitan monolaurate, CAS RN 9005-64-5). The test plants were then grown in a glasshouse under controlled conditions (at 24/16° C., day/night; 14 hours light; 65% humidity) and watered twice daily. After 13 days, the test was evaluated (5=total damage to plant; 0=no damage to plant).

| SMILES | Post-emergence herbicidal damage score, ABUTH (Abutilon theophrasti) (1000 g/ha) | Post-emergence herbicidal damage score, ALOMY (Alopecurus myosuroides) (1000 g/ha) | Post-emergence herbicidal damage score, AMARE (Amaranthus retroflexus) (1000 g/ha) | Post-emergence herbicidal damage score, ECHCG (Echinochloa crus-galli) (1000 g/ha) | Post-emergence herbicidal damage score, SETFA (Setaria faberi) (1000 g/ha) | Post-emergence herbicidal damage score, ZEAMX (Zea mays) (1000 g/ha) | Post-emergence herbicidal damage score, ABUTH (Abutilon theophrasti) (250 g/ha) | Post-emergence herbicidal damage score, ALOMY (Alopecurus myosuroides) (250 g/ha) | Post-emergence herbicidal damage score, AMARE (Amaranthus retroflexus) (250 g/ha) | Post-emergence herbicidal damage score, ECHCG (Echinochloa crus-galli) (250 g/ha) | Post-emergence herbicidal damage score, SETFA (Setaria faberi) (250 g/ha) | Post-emergence herbicidal damage score, ZEAMX (Zea mays) (250 g/ha) |
| --- | --- | --- | --- | --- | --- | --- | --- | --- | --- | --- | --- | --- |
| CC1=C(Cl)C(O)N(c2cc(C)n(C(F)F)n2)C1=O (stereo not drawn) [Compound C6] | 1 | 0 | 2 | 0 | 2 | 1 | – | – | – | – | – | – |
| CCC(C)c1cc(N2C(=O)C(C)=C(Cl)C2O)nn1C (mixture of isomers) [Compound B15] | 5 | 4 | 5 | 5 | 5 | 2 | – | – | – | – | – | – |
| CC1=C(Cl)C(O)N(c2nn(C)c(C(C)(C)CCl)c2Cl)C1=O (stereo not drawn) [Compound D3] | 1 | 0 | 0 | 2 | 1 | 1 | – | – | – | – | – | – |
| CC(C)=C(C)c1cc(N2C(=O)C(C)=C(Cl)C2O)nn1C (stereo not drawn) [Compound B27] | 4 | 1 | 1 | 0 | 3 | 0 | – | – | – | – | – | – |
| CC1=C(Cl)C(O)N(c2cc(C(C)C)[nH]n2)C1=O (stereo not drawn) [Compound A3] | – | – | – | – | – | – | 5 | 5 | 5 | 5 | 4 | 1 |
| CC1=C(Cl)C(O)N(c2cc(C(C)C)n(C)n2)C1=O (stereo not drawn) [Compound B5] | – | – | – | – | – | – | 5 | 4 | 5 | 5 | 4 | 3 |
| CC1=C(Cl)C(O)N(c2cc(C(C)C(F)(F)F)n(C)n2)C1=O (mixture of isomers) [Compound B21] | 4 | 5 | 5 | 5 | 5 | 1 | – | – | – | – | – | – |
| CCn1nc(N2C(=O)C(C)=C(Cl)C2O)c2c1C(C)(C)CC2 (stereo not drawn) [Compound C3] | 5 | 4 | 5 | 5 | 5 | 1 | – | – | – | – | – | – |
| CCC1CCn2nc(N3C(=O)C(C)=C(Cl)C3O)cc21 (mixture of isomers) [Compound G3] | 5 | 4 | 5 | 4 | 5 | 2 | – | – | – | – | – | – |
| CCC(C)(CC)c1cc(N2C(=O)C(C)=C(Cl)C2O)n[nH]1 (stereo not drawn) [Compound A7] | 5 | 3 | 5 | 5 | 5 | 1 | – | – | – | – | – | – |
| CC1=C(Br)C(O)N(c2nn(C)c(C(C)(C)C)c2C#N)C1=O (stereo not drawn) [Compound H5] | 2 | 1 | 2 | 1 | 1 | 0 | – | – | – | – | – | – |
| CC1=C(Cl)C(OC(=O)OCC(C)C)N(c2cc(C(C)(C)C)n(C)n2)C1=O (stereo not drawn) [Compound F1] | 5 | 4 | 5 | 5 | 5 | 3 | – | – | – | – | – | – |
| CC1=C(Cl)C(O)N(c2ccn(C)n2)C1=O (stereo not drawn) [Compound B31] | 0 | 1 | 3 | 1 | 1 | 1 | – | – | – | – | – | – |
| CC1=C(Cl)C(O)N(c2nn(C)c3c2CCCCC3(C)C)C1=O (stereo not drawn) [Compound B28] | 4 | 2 | 4 | 3 | 3 | 1 | – | – | – | – | – | – |
| CC1=C(Cl)C(O)N(c2nn(C)c(C(C)(C)C)c2C#N)C1=O (stereo not drawn) [Compound D1] | 3 | 2 | 4 | 3 | 1 | 0 | – | – | – | – | – | – |
| COC1=C(Cl)C(O)N(c2cc(C(C)(C)C)n(C)n2)C1=O (stereo not drawn) [Compound J1, 1-(5-tert-butyl-1-methyl-pyrazol-3-yl)-3-chloro-2-hydroxy-4-methoxy-2H-pyrrol-5-one] | 5 | 5 | 5 | 5 | 5 | 3 | – | – | – | – | – | – |
| CC1=C(Cl)C(O)N(c2cc([S+](C)[O-])n(C)n2)C1=O (stereo not drawn) [Compound B26] | 5 | 4 | 5 | 5 | 5 | 4 | – | – | – | – | – | – |
| CC1=C(Br)C(O)N(c2cc3n(n2)CCSC3(C)C)C1=O (stereo not drawn) [Compound H9] | 4 | 5 | 4 | 3 | 3 | 0 | – | – | – | – | – | – |
| CC1=C(Cl)C(O)N(c2cc(I)n(C)n2)C1=O (stereo not drawn) [Compound B8, 3-chloro-2-hydroxy-1-(5-iodo-1-methyl-pyrazol-3-yl)-4-methyl-2H-pyrrol-5-one] | 5 | 3 | 5 | 4 | 5 | 1 | – | – | – | – | – | – |
| COC1=C(C)C(=O)N(c2cc3n(n2)CCCC3(C)C)C1O (stereo not drawn) [Compound I5] | 5 | 5 | 5 | 5 | 5 | 4 | – | – | – | – | – | – |
| CCC1CCCn2nc(N3C(=O)C(C)=C(Cl)C3O)cc21 (mixture of isomers) [Compound G5] | 5 | 4 | 5 | 4 | 4 | 0 | – | – | – | – | – | – |
| CC1=C(Cl)C(O)N(c2cc(C(C)(C)C)n(C)n2)C1=O (stereo not drawn) [Compound B2, 1-(5-tert-butyl-1-methyl-1H-pyrazol-3-yl)-4-chloro-5-hydroxy-3-methyl-1,5-dihydro-pyrrol-2-one] | 5 | 5 | 5 | 5 | 5 | 2 | – | – | – | – | – | – |
| CC1=C(Cl)C(O)N(c2cc(C(F)(F)F)n(C)n2)C1=O (stereo not drawn) [Compound B3] | 5 | 5 | 5 | 5 | 4 | 1 | – | – | – | – | – | – |
